Data on eight compounds can be found in US8642793B1, “Biosurfactant produced by Aureobasidium pullulans” (Gyeongbuk Institute for Marine Bio-industry, priority 2012, dated 2014).

Data set [1] can be described thus: Measurement of surface tension with a surface tension meter (Sigma 700, KSV Instruments). It is filed as physicochemical. The procedure:
Compound L9 isolated in Example 1 was dropped on a hydrophobic film, and surface tension variation was observed using a surface tension meter (Densitometer, Sigma 700 Densitometer (KSV Instruments Ltd., Finland)). Water was a control, and a culture medium and the size of compound L9 were compared. The numerical value of the surface tension was shown as (dyne/cm (or mN/m)). When a surfactant that has a hydrophobic moiety and a hydrophilic moiety is added to water, surface tension decreases. […] As the intermolecular interaction increases, the surface tension increases. Surface tensions of Compound L9 and known materials produced by bacteria (Table 2) and yeasts (Table 3) were measured, and the results are shown in Tables 2 and 3 below.

The conditions of data set [2]: reference liquids of Table 1, no amount given; cited from earlier work.

Read-outs that look alike come from different tables or passages of the source.

With `CCCCC[C@@H](O)C[C@@H](O)CC(=O)O[C@H](CCCCC)C[C@@H](O)CC(=O)O[C@H](CCCCC)C[C@@H](O)CC(=O)OCC(O)CO` (stereo partly shown) [Compound L9], the Surface tension turned out to be 31.5 dyne/cm in data set [1] (amount of material 1.5 mg/L) and 31.5 mN/m in data set [1] (at 1.5 mg/litter). Further, the “degree of activity (surface tension)” value in data set [1] (summary statement, no amount given) was 31 dyne/cm.
As for `OCC(O)CO` [Glycerin], in data set [2], the Surface tension is 63 dyne/cm.
Flavolipid displayed a Surface tension in data set [1] (amount of material 300 mg/L) of 26.0 dyne/cm.
With Iturin, the Surface tension in data set [1] (amount of material 20 mg/L) was found to be 43.0 dyne/cm.
The compound Rhamnolipid had a Surface tension in data set [1] (amount of material 30 mg/L) of 31.4 dyne/cm.
In data set [1] (amount of material 40 mg/L), Sophorolipid gave a Surface tension of 35.0 dyne/cm.
In data set [1] (amount of material 25 mg/L), Trehalos lipid had a Surface tension of 24.1 dyne/cm.
Consider Trehalose lipid, for which the Surface tension in data set [1] (amount of material 0.7 mg/L) was 43.0 dyne/cm.
